Assay results from patent US20210078958A1, “QUINAZOLINE DERIVATIVE AND USE THEREOF” (MEDSHINE DISCOVERY INC., priority 2017, published 2021).

Legend:
[1] = target: HER1 (ErbB1) (Homo sapiens, UniProt P00533); assay: in vitro enzyme activity, HER1 (ErbB1); format: biochemical; details: human ErbB1, [γ-33P]ATP, poly(Glu, Tyr) substrate
Description: (§1) The purpose of this assay is to detect the in vitro inhibitory activity of compounds on HER1 (ErbB1), HER2 (ErbB2), and HER4 (ErbB4). The enzymes used in this assay are human ErbB1, ErbB2 and ErbB4. Eurofins Pharma Discovery Service provided the method for activity detection.
(§2) Steps and Method of the Assay (96-Well Plate):
(§3) A buffer solution of the test compounds in a dilution of 5-fold (5 μL), polypeptide substrate poly(Glu, Tyr) (4:1) (2.5 μL), ErbB (4-20 ng, 2.5 μL), MnCl2 (50 mM, 1.25 μL), dH2O (3.75 μL), and [γ-^33P]ATP (10 μL) were added, and incubated at 30° C. for 10 minutes. The reaction was terminated by adding 3% phosphoric acid. 10 μL of the sample was taken and transferred to Filtermate A. The filter disc was washed 3 times with 75 mM phosphoric acid and once with methanol. The filter disc was transferred to a sealed plastic bag and the scintillation mixture (4 mL) was added. The intensity of the emitted photon was detected by a scintillation luminescence counter. The CPM (times/min) of the enzyme sample was compared with the CPM of the internal control sample. The level of photon intensity reflected the degree of the tyrosine kinase activity.

[2] = target: HER4 (ErbB4) (Homo sapiens, UniProt Q15303); assay: in vitro enzyme activity, HER4 (ErbB4); format: biochemical; details: human ErbB4, [γ-33P]ATP, poly(Glu, Tyr) substrate
Chain of HER4 (ErbB4) (Q15303 26-1308): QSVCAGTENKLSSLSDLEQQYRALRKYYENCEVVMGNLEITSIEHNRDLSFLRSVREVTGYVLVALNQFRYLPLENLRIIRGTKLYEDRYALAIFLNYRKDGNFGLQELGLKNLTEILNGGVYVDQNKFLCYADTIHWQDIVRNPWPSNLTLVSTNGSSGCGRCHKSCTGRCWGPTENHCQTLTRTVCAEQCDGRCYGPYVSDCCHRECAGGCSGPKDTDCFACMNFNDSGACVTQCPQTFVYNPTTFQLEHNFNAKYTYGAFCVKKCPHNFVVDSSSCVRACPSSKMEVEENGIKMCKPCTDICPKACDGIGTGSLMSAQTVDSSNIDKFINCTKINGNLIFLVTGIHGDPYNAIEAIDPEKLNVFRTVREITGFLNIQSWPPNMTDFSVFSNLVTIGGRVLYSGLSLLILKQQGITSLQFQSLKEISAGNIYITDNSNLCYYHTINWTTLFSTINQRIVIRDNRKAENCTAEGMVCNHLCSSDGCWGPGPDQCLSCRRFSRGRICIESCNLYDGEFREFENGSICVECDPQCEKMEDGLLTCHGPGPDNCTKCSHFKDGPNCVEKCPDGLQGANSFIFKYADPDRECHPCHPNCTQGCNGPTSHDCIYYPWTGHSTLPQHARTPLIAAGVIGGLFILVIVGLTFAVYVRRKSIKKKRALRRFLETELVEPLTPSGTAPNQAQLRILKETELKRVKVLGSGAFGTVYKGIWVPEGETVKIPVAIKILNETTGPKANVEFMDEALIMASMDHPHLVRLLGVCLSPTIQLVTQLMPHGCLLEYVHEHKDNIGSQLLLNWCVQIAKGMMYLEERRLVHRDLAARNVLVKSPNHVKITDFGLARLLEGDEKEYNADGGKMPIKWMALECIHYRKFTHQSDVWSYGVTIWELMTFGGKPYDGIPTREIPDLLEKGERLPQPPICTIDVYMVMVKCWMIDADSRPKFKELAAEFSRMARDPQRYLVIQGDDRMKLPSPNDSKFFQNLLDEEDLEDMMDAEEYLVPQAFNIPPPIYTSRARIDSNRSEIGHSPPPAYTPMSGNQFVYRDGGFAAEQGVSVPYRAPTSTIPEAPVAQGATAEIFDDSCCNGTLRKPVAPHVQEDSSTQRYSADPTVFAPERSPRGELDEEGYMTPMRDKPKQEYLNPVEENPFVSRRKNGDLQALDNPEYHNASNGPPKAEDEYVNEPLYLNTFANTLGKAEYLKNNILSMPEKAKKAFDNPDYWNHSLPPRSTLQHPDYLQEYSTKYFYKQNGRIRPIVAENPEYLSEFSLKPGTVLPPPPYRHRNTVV
Description: as §1, §2, §3

[3] = target: HER2 (ErbB2) (Homo sapiens, UniProt P04626); assay: in vitro enzyme activity, HER2 (ErbB2); format: biochemical; details: human ErbB2, [γ-33P]ATP, poly(Glu, Tyr) substrate
Chain of HER2 (ErbB2) (P04626 23-1255): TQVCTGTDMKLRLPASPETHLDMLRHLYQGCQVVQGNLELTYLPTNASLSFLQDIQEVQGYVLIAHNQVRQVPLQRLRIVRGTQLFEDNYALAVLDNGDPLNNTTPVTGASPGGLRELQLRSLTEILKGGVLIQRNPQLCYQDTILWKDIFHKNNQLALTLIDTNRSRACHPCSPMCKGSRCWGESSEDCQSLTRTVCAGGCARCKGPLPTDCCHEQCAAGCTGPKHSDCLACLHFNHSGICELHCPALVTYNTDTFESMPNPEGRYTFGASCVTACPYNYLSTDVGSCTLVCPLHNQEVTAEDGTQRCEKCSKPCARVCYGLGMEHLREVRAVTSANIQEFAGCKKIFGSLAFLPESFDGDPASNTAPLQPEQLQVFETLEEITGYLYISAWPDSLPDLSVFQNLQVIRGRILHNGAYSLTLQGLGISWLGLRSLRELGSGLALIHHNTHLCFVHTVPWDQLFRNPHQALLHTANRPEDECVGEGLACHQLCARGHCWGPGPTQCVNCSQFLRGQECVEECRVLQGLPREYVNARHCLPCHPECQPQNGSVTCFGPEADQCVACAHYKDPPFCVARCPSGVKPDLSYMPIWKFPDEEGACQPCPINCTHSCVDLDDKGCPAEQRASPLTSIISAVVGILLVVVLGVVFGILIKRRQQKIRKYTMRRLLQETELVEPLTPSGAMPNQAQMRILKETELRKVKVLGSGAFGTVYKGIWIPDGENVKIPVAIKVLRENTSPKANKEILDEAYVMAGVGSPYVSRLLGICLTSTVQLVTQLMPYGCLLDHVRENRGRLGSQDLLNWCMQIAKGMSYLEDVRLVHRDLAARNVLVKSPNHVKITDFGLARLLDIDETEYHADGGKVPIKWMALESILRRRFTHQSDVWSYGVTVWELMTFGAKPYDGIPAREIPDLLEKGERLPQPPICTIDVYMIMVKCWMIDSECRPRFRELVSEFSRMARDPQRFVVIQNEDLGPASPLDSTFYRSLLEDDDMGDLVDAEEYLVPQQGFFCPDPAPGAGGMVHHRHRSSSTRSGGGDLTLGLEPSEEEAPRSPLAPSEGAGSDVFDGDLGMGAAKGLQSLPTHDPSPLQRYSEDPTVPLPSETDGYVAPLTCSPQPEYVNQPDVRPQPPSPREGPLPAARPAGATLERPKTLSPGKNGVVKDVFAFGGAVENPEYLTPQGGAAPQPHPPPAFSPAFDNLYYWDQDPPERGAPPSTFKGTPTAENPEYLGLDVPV
Description: as §1, §2, §3

[4] = test system: NCI-N87 cell; assay: inhibitory activity on cell proliferation (Cell-Titer-Glo), NCI-N87; format: cell-based; details: Homo sapiens, NCI-N87, 72 h; incubation for 3 days, Cell-Titer-Glo
From the text: Purpose of the assay: to detect the inhibitory activity of the test compounds on cell proliferation.
Principle of the assay: the luciferase in a Cell-Titer-Glo reagent produces oxidized luciferin with luciferin, oxygen and ATP as reaction substrates, and releases energy in the form of light. Since the luciferase reaction requires ATP, the total amount of light generated by the reaction is proportional to the total amount of ATP that reflects cell viability.
Cell Titer-Glo cell viability assay kit with luminescence (Promega #G7573)
According to the schematic diagram of the cell seed plate, cells were seeded in a 384- or 96-well plate at a density of 1000 cells per well and 25 μL per well, and 25 μL of PBS was added to the wells near edge of the place where no cells were seeded.
(1) The stock solution of the compounds has a concentration of 10 mM, and the compounds were diluted with DMSO to an initial concentration of 4 mM. The compounds were added to the plate with stock solution of compounds, 9 μL per well.
(2) The compounds were diluted with an ECHO liquid workstation, where 125 nL of compounds were added to each well of the cell plate, 125 nL of DMSO was added to each of the cell well in columns 2 and 23, and 125 nL of DMSO was added to each PBS well in columns 1 and 24.
2.3 After addition of the compounds, the cell plate was centrifuged at 1000 rpm for 1 min, and then placed in a 37° C., 5% CO2 incubator for incubation for 3 days.
The cell plate was taken out from the incubator and equilibrated at room temperature for 30 minutes. 25 μL of Cell-Titer-Glo reagent was added to each well, shaken for one minute to allow well mixed, and centrifuged at 1000 rpm for 1 minute. After 10 minutes, the plate was read on PerkinElmer Envision, and the […] reading time was set to 0.2 second.

Chain of HER1 (ErbB1) (P00533 25-1210): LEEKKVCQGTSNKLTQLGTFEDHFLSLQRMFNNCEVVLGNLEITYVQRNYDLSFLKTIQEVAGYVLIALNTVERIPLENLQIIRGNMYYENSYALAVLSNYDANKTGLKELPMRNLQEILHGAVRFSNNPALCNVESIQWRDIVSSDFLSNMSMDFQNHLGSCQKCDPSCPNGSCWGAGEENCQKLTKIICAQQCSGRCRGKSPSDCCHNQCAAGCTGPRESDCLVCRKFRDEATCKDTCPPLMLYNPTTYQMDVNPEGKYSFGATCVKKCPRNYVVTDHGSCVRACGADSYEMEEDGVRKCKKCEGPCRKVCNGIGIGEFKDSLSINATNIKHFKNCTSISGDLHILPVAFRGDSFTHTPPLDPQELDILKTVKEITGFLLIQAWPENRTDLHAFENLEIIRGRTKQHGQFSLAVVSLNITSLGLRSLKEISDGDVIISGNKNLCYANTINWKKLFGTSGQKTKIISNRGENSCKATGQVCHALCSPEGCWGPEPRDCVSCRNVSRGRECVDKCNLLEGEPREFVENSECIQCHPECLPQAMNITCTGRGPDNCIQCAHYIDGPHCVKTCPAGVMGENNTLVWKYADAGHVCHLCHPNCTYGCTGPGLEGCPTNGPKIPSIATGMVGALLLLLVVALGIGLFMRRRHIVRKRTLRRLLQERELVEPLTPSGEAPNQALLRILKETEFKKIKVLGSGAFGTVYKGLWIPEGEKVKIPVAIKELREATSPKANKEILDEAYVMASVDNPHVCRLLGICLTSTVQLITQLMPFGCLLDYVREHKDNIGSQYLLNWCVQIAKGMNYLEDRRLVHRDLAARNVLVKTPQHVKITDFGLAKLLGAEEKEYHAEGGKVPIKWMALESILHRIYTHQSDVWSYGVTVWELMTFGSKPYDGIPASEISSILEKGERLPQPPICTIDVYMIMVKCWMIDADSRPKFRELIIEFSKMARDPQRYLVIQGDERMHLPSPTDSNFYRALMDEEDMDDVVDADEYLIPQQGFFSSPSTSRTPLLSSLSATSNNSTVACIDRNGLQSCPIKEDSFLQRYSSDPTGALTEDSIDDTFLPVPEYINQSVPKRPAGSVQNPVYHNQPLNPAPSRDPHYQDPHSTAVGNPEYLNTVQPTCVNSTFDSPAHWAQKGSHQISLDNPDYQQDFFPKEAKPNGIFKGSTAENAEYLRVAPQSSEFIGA

In the case of `C=CC(=O)N1C[C@H]2C[C@@H](C1)[C@H]2Oc1cc2c(Nc3cccc(Cl)c3F)ncnc2cc1OC` [Example 5], the IC50 [1] is reported as 9 nM, the IC50 [2] is reported as 157 nM and the IC50 [3] is reported as 24 nM.
Work on `C=CC(=O)N1[C@@H]2CC[C@H]1C[C@H](Oc1cc3c(Nc4ccc(Cl)c(Cl)c4F)ncnc3cc1O[C@H]1CCOC1)C2` [Example 26] yielded an IC50 [1] of 8 nM, an IC50 [2] of 4 nM and an IC50 [3] of 5 nM. For the same compound, the IC50 [4] was 0.24 nM.
For `C=CC(=O)N1C[C@H]2C[C@@H](C1)[C@H]2Oc1cc2c(Nc3ccc(F)c(Cl)c3)ncnc2cc1OC` [Example 3], the IC50 [1] was 2 nM, the IC50 [2] was 17 nM and the IC50 [3] was 5 nM.
`C=CC(=O)N1[C@@H]2CC[C@H]1C[C@H](Oc1cc3c(Nc4ccc(F)c(Cl)c4)ncnc3cc1OC)C2` [Example 40] showed an IC50 [1] of 11 nM, an IC50 [2] of 2 nM and an IC50 [3] of 5 nM. For the same compound, the IC50 [4] was 0.34 nM.
With `C=CC(=O)N1[C@@H]2CC[C@H]1C[C@H](Oc1cc3c(Nc4ccc(Cl)c(Cl)c4F)ncnc3cc1OCCCO)C2` [Example 44] the IC50 [1] was 5 nM, the IC50 [2] was 3 nM and the IC50 [3] was 4 nM. For the same compound, the IC50 [4] was 0.33 nM.
Compound `C=CC(=O)N1[C@@H]2CC[C@H]1C[C@H](Oc1cc3c(Nc4ccc(Cl)c(Cl)c4F)ncnc3cc1OCCOC)C2` [Example 22] has an IC50 [1] of 12 nM, an IC50 [2] of 3 nM and an IC50 [3] of 7 nM.
Work on `C=CC(=O)N1[C@@H]2CC[C@H]1C[C@H](Oc1cc3c(Nc4ccc(Cl)c(Cl)c4F)ncnc3cc1OCCC(C)(C)O)C2` [Example 45] yielded an IC50 [1] of 8 nM, an IC50 [2] of 10 nM and an IC50 [3] of 7 nM. It also gave an IC50 [4] of 0.69 nM.
`C=CC(=O)N1[C@@H]2CC[C@H]1C[C@H](Oc1cc3c(Nc4ccc(Cl)c(Cl)c4F)ncnc3cc1O[C@@H]1CCOC1)C2` [Example 27] was tested, and the IC50 [1] was 16 nM, the IC50 [2] was 3 nM and the IC50 [3] was 5 nM. For the same compound, the IC50 [4] was 0.31 nM.
`C=CC(=O)N1[C@@H]2CC[C@H]1C[C@H](Oc1cc3c(Nc4ccc(Cl)c(Cl)c4F)ncnc3cc1OCCO)C2` [Example 25] showed an IC50 [1] of 6 nM, an IC50 [2] of 6 nM and an IC50 [3] of 3 nM. It also gave an IC50 [4] of 0.19 nM.
`C=CC(=O)N1[C@@H]2CC[C@H]1C[C@H](Oc1cc3c(Nc4cccc(Cl)c4F)ncnc3cc1OC)C2` [Example 33] showed an IC50 [1] of 7 nM, an IC50 [2] of 3 nM and an IC50 [3] of 6 nM.
`C=CC(=O)N1[C@@H]2CC[C@H]1C[C@H](Oc1cc3c(Nc4ccc(Cl)c(Cl)c4F)ncnc3cc1OCCCN1CCOCC1)C2` [Example 24] was tested, and the IC50 [1] was 10 nM, the IC50 [2] was 3 nM and the IC50 [3] was 6 nM. It also gave an IC50 [4] of 0.17 nM.
`C=CC(=O)N1[C@@H]2CC[C@H]1C[C@H](Oc1cc3c(Nc4ccc(Cl)c(Cl)c4F)ncnc3cc1OCC(F)(F)F)C2` [Example 20] was tested, and the IC50 [1] was 18 nM, the IC50 [2] was 10 nM and the IC50 [3] was 11 nM. The IC50 [4] was 0.6 nM.
For `C=CC(=O)N1C[C@H]2C[C@@H](C1)[C@H]2Oc1cc2c(Nc3ccc(C#N)c(Cl)c3)ncnc2cc1OC` [Example 4], the IC50 [1] was 2 nM, the IC50 [2] was 13 nM and the IC50 [3] was 3 nM.
Work on `C=CC(=O)N1C[C@H]2C[C@@H](C1)[C@H]2Oc1cc2c(Nc3ccc(OC(F)(F)F)c(Cl)c3)ncnc2cc1OC` [Example 6] yielded an IC50 [1] of 2 nM, an IC50 [2] of 17 nM and an IC50 [3] of 4 nM.
Compound `C=CC(=O)N1[C@@H]2CC[C@H]1C[C@H](Oc1cc3c(Nc4ccc(Cl)c(Cl)c4F)ncnc3cc1OCC(=O)NC)C2` [Example 23] has an IC50 [1] of 8 nM, an IC50 [2] of 2 nM and an IC50 [3] of 4 nM. The IC50 [4] was 0.14 nM.
Compound `C=CC(=O)N1[C@@H]2CC[C@H]1C[C@H](Oc1cc3c(Nc4ccc(Cl)c(Cl)c4F)ncnc3cc1OC1COC1)C2` [Example 42] has an IC50 [4] of 0.92 nM.
For `C=CC(=O)N1[C@@H]2CC[C@H]1C[C@H](Oc1cc3c(Nc4ccc(Cl)c(Cl)c4)ncnc3cc1OC)C2` [Example 32], the IC50 [1] was 15 nM, the IC50 [2] was 3 nM and the IC50 [3] was 5 nM. It also gave an IC50 [4] of 0.29 nM.
